Test in all cases: DTP human tumour cell line panel, 48 h
In experiment [1] the test system is SK-MEL-2 melanoma.
Experiment [2] concerns UO-31 renal.
For experiment [3], the system named is TK-10 renal.
In experiment [4] the test system is A498 renal.
Experiment [5] concerns LOX IMVI melanoma.
Experiment [6] concerns SK-MEL-5 melanoma.
Experiment [7] relates to OVCAR-5 ovarian.
The subject of experiment [8] is SK-OV-3 ovarian.
Experiment [9] has as its system PC-3 prostate.

Broadly, the TGI is the concentration giving total growth inhibition. A higher TGI goes with less potent growth arrest. Broadly, the GI50 is the concentration giving 50% growth inhibition.

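Dose response: 5 concentrations. Exposure: 48 h. Format: 96-well plates. Endpoint: linear interpolation; highest concentration if not reached. Abbreviation: GI50, concentration required for 50% inhibition of growth. Definition used: TGI = concentration required for complete inhibition of growth.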

With `OC1OC2COC(c3ccccc3)OC2C(O)C1O` (configuration not stated), the TGI in experiment [1], in experiment [2], in [3], in experiment [4], in experiment [5] and in [6] was above 100 µM throughout. Besides, the TGI in experiment [7] and in experiment [8] was above 100 µM in each case.

Take `CC12CCC(C)(c3cc(O)c(O)cc31)c1cc(O)c(O)cc12`: the TGI in [1] was above 100 µM; in experiment [2] it was 43.5 µM; in experiment [3] it was 40.3 µM; in [5], 35.4 µM; in [6], 36.4 µM; in experiment [7] it was 48.1 µM. Also, the TGI in experiment [8] was 36.7 µM.

Regarding `CCC1(O)CC(c2ccccc2)N(C)C(c2ccccc2)C1` (configuration not stated), the TGI in [1], in [2], in experiment [3], in experiment [4], in [5] and in experiment [6] was above 100 µM throughout. Further, the TGI in experiment [7] and in [8] was above 100 µM each time.

Turning to `O=c1c2ccc(Br)cc2nc(-c2ccccc2)n1NC1OC(CO)C(O)C(O)C1O` (configuration not stated), the TGI in [1], in [2], in experiment [3], in experiment [4], in experiment [6] and in experiment [7] was above 100 µM each time. Moreover, in [8], the TGI is above 100 µM.

With `CC1(C)OC(=O)C(c2ccsc2)C(=O)O1`, the TGI in experiment [1], in experiment [2], in experiment [3], in experiment [5], in experiment [6] and in experiment [7] was above 100 µM each time. Besides, the TGI in experiment [8] was above 100 µM.

Turning to `COc1ccc2c(c1)cn1c3ccc(OC)cc3[nH]c(=O)c21`, the GI50 in experiment [1] was 0.0574 µM; in experiment [2] it was below 0.0169 µM; in experiment [9] it was below 0.0154 µM; in experiment [3], 1.17 µM; in [4] it was below 0.0258 µM; in [5], below 0.0206 µM. In addition, the values for the GI50 in experiment [6], in experiment [7] and in experiment [8] were below 0.019 µM, below 0.0232 µM and below 0.0192 µM, respectively. Besides, the TGI in experiment [1] came to 1.66 µM; in [2], 1.77 µM; in experiment [9], 1.59 µM; in [3] it was 2.44 µM; in [5], 1.78 µM; in [6], 0.76 µM. Besides, the TGI in [7] is 1.81 µM; in [8], 4.48 µM.

Turning to `O=C(c1ccccc1)C(c1ccccc1)C1(O)C(=O)Nc2ccc(Br)cc21` (configuration not stated), the TGI in [1], in [2], in experiment [3], in experiment [4], in experiment [7] and in [8] was above 100 µM throughout.

In the case of `C/C(=N\O)c1ccc(Nc2cc(-c3ccccc3)nc3c(O)cccc23)cc1`, the GI50 in experiment [1] was 17.3 µM; in [2], 14.8 µM; in experiment [9], 17.1 µM; in experiment [3], 12 µM; in [4], 14.5 µM; in experiment [5] it was 6.71 µM. In addition, the GI50 was 23.8 µM in experiment [7] and 27.4 µM in [8]. Further, the TGI in experiment [1] is 36.8 µM; in experiment [2], 33.7 µM; in experiment [9], 41.9 µM; in [3], 29.8 µM; in [4], 31 µM; in experiment [5] it was 24 µM. Moreover, the TGI in [7] was found to be 47.4 µM; in experiment [8], 56.1 µM.

As to `Fc1cccc(C2SCc3nc4ccccc4n32)c1` (configuration not stated), the TGI is above 100 µM in experiment [1]; above 100 µM in experiment [2]; above 10 µM in experiment [3]; 29.4 µM in experiment [6]; 79.3 µM in experiment [7]; above 100 µM in experiment [8].

Take `Cc1cc2c(C=O)[nH]nc2c(C#N)c1C`: the TGI in experiment [1], in experiment [2], in [3], in experiment [4], in experiment [5] and in experiment [6] was above 100 µM in each case. In addition, the TGI in experiment [7] and in experiment [8] was above 100 µM each time.

For `COc1cc(C2C(C(=O)Nc3ccccc3C)=C(C)NC(C)=C2C(=O)Nc2ccccc2C)ccc1O`, the TGI in experiment [1], in experiment [2], in experiment [3], in [4], in experiment [6] and in experiment [7] was above 100 µM throughout. For the same compound, in experiment [8], the TGI was above 100 µM.

As to `O=C1OC(=O)C2C1C1(c3ccccc3)OC2(c2ccccc2)c2c(Br)c(Br)c(Br)c(Br)c21` (configuration not stated), the TGI in experiment [1], in experiment [2], in experiment [3], in experiment [4], in experiment [5] and in [6] was above 100 µM throughout. Further, the values for the TGI in experiment [7] and in experiment [8] were above 100 µM and 74.9 µM, respectively.

Regarding `CCN(CC)[C@@H]1c2cc3c(cc2C(c2cc(OC)c(O)c(OC)c2)C2C(=O)CO[C@@H]21)OCO3` (some centres not stated), the TGI in experiment [1], in [2], in experiment [3], in experiment [4], in [5] and in experiment [6] was above 100 µM each time. In addition, the TGI in [7] and in [8] was above 100 µM each time.

With `CCOC(=O)/C(C#N)=C/c1[nH]c(C)c(C)c1C`, the TGI in [1], in experiment [2], in experiment [3], in experiment [4], in experiment [5] and in experiment [6] was above 100 µM each time. For the same compound, the TGI in experiment [7] and in experiment [8] was above 100 µM each time.

For the compound `COc1ccc(/C=C\c2cc(OC)c(OC(C)=O)c(OC)c2)cc1`, the TGI was 58.8 µM in experiment [1]; 50.1 µM in experiment [2]; 45 µM in experiment [4]; 20.5 µM in experiment [6]; 88.8 µM in [7]; above 100 µM in experiment [8].

For the origin of these results see PubChem BioAssay (NCI).
